We go through 27 molecules from patent US20240190890A1, “MK2 INHIBITORS AND USES THEREOF” (Bristol-Myers Squibb Company, priority 2022, published 2024).

Chain of p38a activated, mitogen-activated protein kinase-activated protein kinase 2 (MAPKAP-K2 or MK2) enzyme (P49137 whole entry): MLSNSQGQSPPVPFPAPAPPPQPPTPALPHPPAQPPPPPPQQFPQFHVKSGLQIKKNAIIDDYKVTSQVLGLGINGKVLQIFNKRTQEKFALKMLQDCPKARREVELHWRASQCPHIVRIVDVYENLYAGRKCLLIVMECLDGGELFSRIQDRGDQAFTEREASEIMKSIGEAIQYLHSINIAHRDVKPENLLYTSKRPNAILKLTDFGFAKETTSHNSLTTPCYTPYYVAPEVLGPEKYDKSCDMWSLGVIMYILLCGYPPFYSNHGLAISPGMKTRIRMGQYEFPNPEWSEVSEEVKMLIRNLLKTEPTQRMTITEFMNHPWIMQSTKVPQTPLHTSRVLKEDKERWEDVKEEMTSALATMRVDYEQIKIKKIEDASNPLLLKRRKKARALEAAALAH

This assay addresses p38a activated, mitogen-activated protein kinase-activated protein kinase 2 (MAPKAP-K2 or MK2) enzyme (Homo sapiens (Human), UniProt P49137). The assay is described as follows: MK2 Omnia continuous-read kinase assay for compound potency. It is filed as biochemical. The following applies: [MK-2]=0.4 nM, [ATP]=10 μM, [ST3-Sox]=10 μM; room temperature. Put shortly: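 Continuous Sox-peptide fluorescence read (ex360/em485) every 71 s over 2 h at room temperature. Reactions: 10 μM each of ATP (at apparent Km) and S/T3-Sox, 0.4 nM p38a-activated MK2, pH 7.5 Tris/MgCl2 buffer. Initial rates yield % inhibition and IC50; single-exponential kobs values yield apparent kinact/KI.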
The term IC50 denotes the concentration that gives 50% inhibition. Consider `C=Cc1cc(-c2ccc3c(ccc4sc5c(c43)NC[C@@H](C)NC5=O)n2)cc(N2CCOCC2)n1` [Example I-156, (R)-10-methyl-3-(2-morpholino-6-vinylpyridin-4-yl)-9,10,11,12-tetrahydro-8H-[1,4]diazepino[5′,6′:4,5]thieno[3,2-f]quinolin-8-one], for which the half-maximal inhibitory concentration (IC50) worked out at 23 nM.
As for `C#Cc1cc(-c2ccc3c(ccc4sc5c(c43)NC[C@@H](C)NC5=O)n2)cc(N2CCOCC2)n1` [Example I-157, (R)-3-(2-ethynyl-6-morpholinopyridin-4-yl)-10-methyl-9,10,11,12-tetrahydro-8H-[1,4]diazepino[5′,6′:4,5]thieno[3,2-f]quinolin-8-one], the IC50 is 214 nM.
For the molecule `C=Cc1cc(-c2ccc3c(ccc4sc5c(c43)NC[C@@H](C)NC5=O)n2)cc(N2CCC(OC)CC2)n1` [Example I-158, (R)-3-(2-(4-methoxypiperidin-1-yl)-6-vinylpyridin-4-yl)-10-methyl-9,10,11,12-tetrahydro-8H-[1,4]diazepino[5′,6′:4,5]thieno[3,2-f]quinolin-8-one], the IC50 is 38 nM.
Then `C#Cc1cc(-c2ccc3c(ccc4sc5c(c43)NC[C@@H](C)NC5=O)n2)cc(N2CCC(OC)CC2)n1` [Example I-159, (R)-3-(2-ethynyl-6-(4-methoxypiperidin-1-yl)pyridin-4-yl)-10-methyl-9,10,11,12-tetrahydro-8H-[1,4]diazepino[5′,6′:4,5]thieno[3,2-f]quinolin-8-one], with 189 nM; and `C[C@@H]1CNc2c(sc3ccc4nc(-c5cc(Cl)ncc5C#N)ccc4c23)C(=O)N1` [Example I-160, (R)-6-chloro-4-(10-methyl-8-oxo-9,10,11,12-tetrahydro-8H-[1,4]diazepino[5′,6′:4,5]thieno[3,2-f]quinolin-3-yl)nicotinonitrile], with 3 nM.
The value for `C=Cc1cc(-c2ccc3c(ccc4sc5c(c43)NC[C@@H](C)NC5=O)n2)c(C#N)cn1` [Example I-161, (R)-4-(10-methyl-8-oxo-9,10,11,12-tetrahydro-8H-[1,4]diazepino[5′,6′:4,5]thieno[3,2-f]quinolin-3-yl)-6-vinylnicotinonitrile] was 2 nM; that for `C#Cc1cc(-c2ccc3c(ccc4sc5c(c43)NC[C@@H](C)NC5=O)n2)c(C#N)cn1` [Example I-162, (R)-6-ethynyl-4-(10-methyl-8-oxo-9,10,11,12-tetrahydro-8H-[1,4]diazepino[5′,6′:4,5]thieno[3,2-f]quinolin-3-yl)nicotinonitrile] was 2 nM; that for `C=Cc1cncc(-c2ccc3c(ccc4sc5c(c43)NC[C@@H](C)NC5=O)n2)n1` [Example I-163, (R)-10-methyl-3-(6-vinylpyrazin-2-yl)-9,10,11,12-tetrahydro-8H-[1,4]diazepino[5′,6′:4,5]thieno[3,2-f]quinolin-8-one] was 109 nM.
Then `C=Cc1nccn1-c1ccc2c(ccc3sc4c(c32)NC[C@@H](C)NC4=O)n1` [Example I-164, (R)-10-methyl-3-(2-vinyl-1H-imidazol-1-yl)-9,10,11,12-tetrahydro-8H-[1,4]diazepino[5′,6′:4,5]thieno[3,2-f]quinolin-8-one], with 1 nM; and `C[C@@H]1CNc2c(sc3ccc4nc(-n5ccc(Cl)n5)ccc4c23)C(=O)N1` [Example I-165, (R)-3-(3-chloro-1H-pyrazol-1-yl)-10-methyl-9,10,11,12-tetrahydro-8H-[1,4]diazepino[5′,6′:4,5]thieno[3,2-f]quinolin-8-one], with 81 nM; and `C=Cc1nc(-c2ccc3c(ccc4sc5c(c43)NC[C@@H](C)NC5=O)n2)cnc1C` [Example I-166, (R)-10-methyl-3-(5-methyl-6-vinylpyrazin-2-yl)-9,10,11,12-tetrahydro-8H-[1,4]diazepino[5′,6′:4,5]thieno[3,2-f]quinolin-8-one], with 181 nM.
Take `C=Cc1cc(-c2ccc3c(ccc4sc5c(c43)NC[C@@H](C)NC5=O)n2)cc(N2CCC(F)(F)CC2)n1` [Example I-168, (R)-3-(2-(4,4-difluoropiperidin-1-yl)-6-vinylpyridin-4-yl)-10-methyl-9,10,11,12-tetrahydro-8H-[1,4]diazepino[5′,6′:4,5]thieno[3,2-f]quinolin-8-one]: the IC50 was determined as 260 nM.
Then `C#Cc1cc(-c2ccc3c(ccc4sc5c(c43)NC[C@@H](C)NC5=O)n2)cc(CN2CCOCC2)n1` [Example I-169, (R)-3-(2-ethynyl-6-(morpholinomethyl)pyridin-4-yl)-10-methyl-9,10,11,12-tetrahydro-8H-[1,4]diazepino[5′,6′:4,5]thieno[3,2-f]quinolin-8-one], with 39 nM.
For the molecule `C#Cc1cc(-c2ccc3c(ccc4sc5c(c43)NC[C@@H](C)NC5=O)n2)c(C)nn1` [Example I-170, (R)-3-(6-ethynyl-3-methylpyridazin-4-yl)-10-methyl-9,10,11,12-tetrahydro-8H-[1,4]diazepino[5′,6′:4,5]thieno[3,2-f]quinolin-8-one], the IC50 stood at 18 nM.
The value for `[2H]C([2H])([2H])N1CCN(c2cc(-c3ccc4c(ccc5sc6c(c54)NC[C@@H](C)NC6=O)n3)cc(C=C)n2)CC1` [Example I-171, (R)-10-methyl-3-(2-(4-(methyl-d3)piperazin-1-yl)-6-vinylpyridin-4-yl)-9,10,11,12-tetrahydro-8H-[1,4]diazepino[5′,6′:4,5]thieno[3,2-f]quinolin-8-one] was 13 nM.
As for `[2H]C([2H])([2H])N1CCN(c2cc(-c3ccc4c(ccc5sc6c(c54)NC[C@@H](C)NC6=O)n3)cc(C#C)n2)CC1` [Example I-172, (R)-3-(2-ethynyl-6-(4-(methyl-d3)piperazin-1-yl)pyridin-4-yl)-10-methyl-9,10,11,12-tetrahydro-8H-[1,4]diazepino[5′,6′:4,5]thieno[3,2-f]quinolin-8-one], the IC50 was 97 nM.
Turning to `C=Cc1cc(-c2ccc3c(ccc4sc5c(c43)NC[C@@H](C)NC5=O)n2)cc(N2CCN(CC)CC2)n1` [Example I-173, (R)-3-(2-(4-ethylpiperazin-1-yl)-6-vinylpyridin-4-yl)-10-methyl-9,10,11,12-tetrahydro-8H-[1,4]diazepino[5′,6′:4,5]thieno[3,2-f]quinolin-8-one], the concentration for half-maximal inhibition (IC50) is 35 nM.
Then `C#Cc1cc(-c2ccc3c(ccc4sc5c(c43)NC[C@@H](C)NC5=O)n2)cc(N2CCN(CC)CC2)n1` [Example I-174, (R)-3-(2-(4-ethylpiperazin-1-yl)-6-ethynylpyridin-4-yl)-10-methyl-9,10,11,12-tetrahydro-8H-[1,4]diazepino[5′,6′:4,5]thieno[3,2-f]quinolin-8-one], with 98 nM; and `C=Cc1cc(-c2ccc3c(ccc4sc5c(c43)NC[C@@H](C)NC5=O)n2)cc(N2CCNCC2)n1` [Example I-175, (R)-10-methyl-3-(2-(piperazin-1-yl)-6-vinylpyridin-4-yl)-9,10,11,12-tetrahydro-8H-[1,4]diazepino[5′,6′:4,5]thieno[3,2-f]quinolin-8-one], with 10 nM.
Then `C#Cc1cc(-c2ccc3c(ccc4sc5c(c43)NC[C@@H](C)NC5=O)n2)cc(N2CCNCC2)n1` [Example I-176, (R)-3-(2-ethynyl-6-(piperazin-1-yl)pyridin-4-yl)-10-methyl-9,10,11,12-tetrahydro-8H-[1,4]diazepino[5′,6′:4,5]thieno[3,2-f]quinolin-8-one], with 70 nM; and `C=Cc1cc(-c2ccc3c(ccc4sc5c(c43)NC[C@@H](C)NC5=O)n2)cc(N2CCCCC2)n1` [Example I-177, (R)-10-methyl-3-(2-(piperidin-1-yl)-6-vinylpyridin-4-yl)-9,10,11,12-tetrahydro-8H-[1,4]diazepino[5′,6′:4,5]thieno[3,2-f]quinolin-8-one], with 140 nM; and `C#Cc1cc(-c2ccc3c(ccc4sc5c(c43)NC[C@@H](C)NC5=O)n2)cc(N2CCCCC2)n1` [Example I-178, (R)-3-(2-ethynyl-6-(piperidin-1-yl)pyridin-4-yl)-10-methyl-9,10,11,12-tetrahydro-8H-[1,4]diazepino[5′,6′:4,5]thieno[3,2-f]quinolin-8-one], with 185 nM.
For the molecule `C=Cc1cc(-c2ccc3c(ccc4sc5c(c43)NC[C@@H](C)NC5=O)n2)cc(N2CCC2)n1` [Example I-179, (R)-3-(2-(azetidin-1-yl)-6-vinylpyridin-4-yl)-10-methyl-9,10,11,12-tetrahydro-8H-[1,4]diazepino[5′,6′:4,5]thieno[3,2-f]quinolin-8-one], the half-inhibitory concentration (IC50) amounted to 11 nM.
As for `C#Cc1cc(-c2ccc3c(ccc4sc5c(c43)NC[C@@H](C)NC5=O)n2)cc(N2CCC2)n1` [Example I-180, (R)-3-(2-(azetidin-1-yl)-6-ethynylpyridin-4-yl)-10-methyl-9,10,11,12-tetrahydro-8H-[1,4]diazepino[5′,6′:4,5]thieno[3,2-f]quinolin-8-one], the IC50 is 184 nM.
For the molecule `C=Cc1cnc(C)c(-c2ccc3c(ccc4sc5c(c43)NC[C@@H](C)NC5=O)n2)n1` [Example I-181, (R)-10-methyl-3-(3-methyl-6-vinylpyrazin-2-yl)-9,10,11,12-tetrahydro-8H-[1,4]diazepino[5′,6′:4,5]thieno[3,2-f]quinolin-8-one], the concentration for half-maximal inhibition (IC50) is 39 nM.
As to `C#Cc1cc(-c2ccc3c(ccc4sc5c(c43)NC[C@@H](C)NC5=O)n2)cc(N2CCC(F)(F)CC2)n1` [Example I-182, (R)-3-(2-(4,4-difluoropiperidin-1-yl)-6-ethynylpyridin-4-yl)-10-methyl-9,10,11,12-tetrahydro-8H-[1,4]diazepino[5′,6′:4,5]thieno[3,2-f]quinolin-8-one], the half-maximal inhibitory concentration (IC50) was determined as 1000 nM.
With `C#Cc1cc(-c2ccc3c(ccc4sc5c(c43)NC[C@@H](C)NC5=O)n2)cc(N2CC(F)(F)C2)n1` [Example I-183, (R)-3-(2-(3,3-difluoroazetidin-1-yl)-6-ethynylpyridin-4-yl)-10-methyl-9,10,11,12-tetrahydro-8H-[1,4]diazepino[5′,6′:4,5]thieno[3,2-f]quinolin-8-one], the half-maximal inhibitory concentration (IC50) came out at 839 nM.
